Where “and” joins values, the source holds several entries; their conditions need not be identical. Identical values can stand only once.
Key:
Sprague-Dawley rats = test: Serum thyroid hormones (FT3, FT4, TSH); assay type: in vivo, Rattus norvegicus; conditions: for fT4 / TSH / fT3: group mean
Protocol: Serum free triiodothyronine (FT3), free thyroxine (FT4) and thyroid stimulating hormone (TSH) were measured by Elecsys 2010 immunochemistry analyzer using Roche FT3, FT4 and TSH reagents (all from Roche Diagnostics GmbH, Mannheim, Germany). The test principle is electrochemiluminescence immunoassay (ECLIA).
Data were also analyzed using the BMD method, which is based on dose-response modeling of the full data set using a nested family of exponential and Hill models. The analyses were done on data of males and females combined, using sex as a covariate. […] In that case, different Critical Effect Doses (CEDs) and CEDs at the lowest bound of the confidence interval (CED-L) were generated for each sex. If no difference between sexes is detected, a CED and CED-Ls for the combined data is generated. However, this was also done if the curve fits are close, and separate analyses for males and females were then performed manually. CEDs and CED-Ls were calculated at the predefined Critical Effect Size (CES) of 5% (EFSA standard) or 10%.

[1] = tested on: Dopamine receptors D1 and D5; test: Brain [3H]SCH23390 binding in exposed rats; assay type: in vivo, Rattus norvegicus; conditions: males
Protocol: The membrane containing pellet was homogenized in 15 volumes of 50 mM Tris-HCl buffer at pH 7.4, incubated at 25°C for 30 min, and centrifuged again at 100 000 g. The pellet from the second centrifugation was dissolved in 4 ml 0.32 M sucrose/g brain (v/w), with a final protein concentration of […] and frozen at −40°C.
Dopamine receptors D1 and D5 were analyzed as described before, [39]. In brief, 50 µl (0.7 mg protein) of the membrane preparation was incubated with 124–132 µl buffer (50 mM tris-HCL, 120 mM NaCl, 5 mM KCl, 2,5 mM CaCl2 and 1 mM MgCl2, pH 7.4) and 100 nM ketanserine (Tocris Bioscience, Bristol, UK; to block binding of SCH23390 to the 5-HT receptor) to a final volume of 200 µl. For measuring unspecific binding […] SCH23390 was added to the same mixture. Finally, 1 nM [^3H]SCH23390 was added to all samples to measure binding of the receptors or unspecific binding. The samples were incubated for 30 min at 25°C followed by vacuum filtration and scintillation counting.
Samples were vacuum filtrated trough Whatman glassfiber-filters (type GF/B, 25 mm) and washed 3×3 ml ice-cold incubation buffer. To reduce unspecific binding, the filters where pre-wetted in 1% polyetylenimine for 60 min. […] Radioactive binding was measured as disintegration per minute (DPM1) in a scintillation counter (Tri-Carb 3100TR, Perkin Elmer). […]

[2] = females, total dose 100 mg/kg bw
[3] = females, total dose 300 mg/kg bw
[4] = females, total dose 1000 mg/kg bw
[5] = females, total dose 1700 mg/kg bw
[6] = males, CES 5%, total dose based
[7] = males, CES 5%, total dose based, half min value added to zeros
[8] = males, CES 10%, total dose based
[9] = males, CES 10%, total dose based, half min value added to zeros
[10] = males, adipose tissue concentration based
[11] = males, total dose 1000 mg/kg bw
[12] = males, total dose 1700 mg/kg bw

## Clc1cc(Cl)c(-c2cc(Cl)c(Cl)c(Cl)c2Cl)cc1Cl [PCB 180, 2,2′,3′,4,4′,5,5′-heptachlorobiphenyl]
Sprague-Dawley rats; females, total dose 30 mg/kg bw
  fT4: 23.4 pmol/L
Sprague-Dawley rats; [2]
  TSH: 0.011 µIU/ml
  fT3: 6.20 pmol/L
  fT4: 22.4 pmol/L
Sprague-Dawley rats; [3]
  TSH: 0.021 µIU/ml
  fT3: 5.68 pmol/L
  fT4: 18.0 pmol/L
Sprague-Dawley rats; [4]
  TSH: 0.011 µIU/ml
  fT3: 5.16 pmol/L
  fT4: 15.3 pmol/L
Sprague-Dawley rats; [5]
  TSH: 0.066 µIU/ml
  fT3: 4.70 pmol/L
  fT4: 11.1 pmol/L
Sprague-Dawley rats; males
  Increased serum TSH, CED-L: 0.04 µg/g lipid
  TSH, Dose response: D, T
  fT3, Dose response: D, T
  fT4, Dose response: D, T
Sprague-Dawley rats; [6]
  Serum free T3 (S-fT3), CED: 290 mg/kg bw
  Serum free T3 (S-fT3), CED-L: 218 mg/kg bw
  Serum free T4 (S-fT4), CED: 38.1 mg/kg bw
  Serum free T4 (S-fT4), CED-L: 26.8 mg/kg bw
Sprague-Dawley rats; [7]
  Serum TSH, CED: 0.07 mg/kg bw and 0.0747 mg/kg bw
  Serum TSH, CED-L: 0.0139 mg/kg bw
Sprague-Dawley rats; [8]
  Serum free T3 (S-fT3), CED: 596 mg/kg bw
  Serum free T3 (S-fT3), CED-L: 448 mg/kg bw
  Serum free T4 (S-fT4), CED: 79.4 mg/kg bw
  Serum free T4 (S-fT4), CED-L: 56.0 mg/kg bw
Sprague-Dawley rats; [9]
  Serum TSH, CED: 0.149 mg/kg bw
  Serum TSH, CED-L: 0.0278 mg/kg bw
Sprague-Dawley rats; [10]
  Serum TSH, CED: 0.29 µg/g lipid
  Serum free T3, CED: 428 µg/g lipid
  Serum free T4, CED: 158 µg/g lipid
  Serum thyroxine, CED-L: 117000 ng/g lipid
Sprague-Dawley rats; males, total dose 3 mg/kg bw
  TSH: 0.021 µIU/ml
  fT3: 5.74 pmol/L
  fT4: 25.4 pmol/L
Sprague-Dawley rats; males, total dose 10 mg/kg bw
  TSH: 0.057 µIU/ml
  fT3: 5.58 pmol/L
  fT4: 28.4 pmol/L
Sprague-Dawley rats; males, total dose 30 mg/kg bw
  TSH: 0.059 µIU/ml
  fT3: 5.77 pmol/L
  fT4: 27.2 pmol/L
Sprague-Dawley rats; males, total dose 100 mg/kg bw
  TSH: 0.089 µIU/ml
  fT3: 5.39 pmol/L
  fT4: 21.7 pmol/L
Sprague-Dawley rats; males, total dose 300 mg/kg bw
  TSH: 0.075 µIU/ml
  fT3: 5.24 pmol/L
  fT4: 17.6 pmol/L
Sprague-Dawley rats; [11]
  TSH: 0.100 µIU/ml
  fT3: 4.21 pmol/L
  fT4: 11.7 pmol/L
Sprague-Dawley rats; [12]
  TSH: 0.137 µIU/ml
  fT3: 4.41 pmol/L
  fT4: 8.71 pmol/L
[1]; 1000 mg/kg bw
  Specific [3H]SCH23390 binding to D1/D5 dopamine receptors in cerebrum vs controls: No significant differences
[1]; total dose 1000 mg/kg bw, group mean
  Dopamine D1/D5 receptor binding: 1075 DPM1

From paper PMC4138103 (PLoS ONE, 2014)
